| melting point [°C] | SMILES |
| --- | --- |
| 47 to 49 | CC(C)(C)c1cc(S)cc(C(C)(C)C)c1 |
| 131 to 132 | O=C(O)c1cccc(-c2ccc3c(c2)N(c2ccc(Cl)cc2Cl)CCCC3)c1 |
| 193 to 195 | CCOC(=O)CCc1c(-c2cc(Cl)ccc2OC)c2cc(C(F)(F)F)ccc2[nH]c1=O |
| 134 to 136 | CCOC(=O)c1ccc(NC(=O)CCc2ccc(OC)cc2)cc1 |
| 178 to 179 | CCN1CCC(c2c[nH]c3ccc(NC(=O)c4ccco4)cc23)CC1 |
| 81 to 82 | CCC(Cl)CCC(=O)c1cc(OC)c(OC)cc1F (configuration not stated) |
| 130 to 133 | COc1ccc2c3c(ccc2c1)-c1ccccc1C3c1ccc(OCCN2CCCCC2)cc1 (configuration not stated) |
| 235 to 236 | CC(=O)N1CCN(c2cc3c(c(NCc4ccccc4)c2F)c(=O)c(C(=O)O)cn3C2CC2)CC1C (configuration not stated) |
| 137 to 138 | COc1cc(Br)c(C(C)=NOCc2ccc([N+](=O)[O-])cc2)cc1O |
| 176 to 178 | Nc1ccc(N2C(=O)c3ccccc3C2=O)cc1S(F)(F)(F)(F)F |
| 131 | COc1cc(OC)c([N+](=O)[O-])nc1NCCO |
| 116 to 117 | Cc1oc(-c2ccccc2)nc1COc1ccc(C=O)cn1 |
| 149 to 151 | N#CNC(=Nc1ccncc1)NCC(O)COc1ccc(Cl)cc1 (configuration not stated) |
| 101 to 102 | COC(=O)COc1ccc2cc(-c3ccc(-c4ccccc4)n3Cc3ccccc3)ccc2c1 |
| 268 to 269 | Cc1c(C#N)sc(N=Nc2c(NCC(C)O)nc(NCC(C)O)c(C#N)c2C)c1C#N (configuration not stated) |
| 175 to 177 | CNc1nc(-c2cccc(NC(=O)c3ccccn3)c2)c2cc(OC)c(OC)cc2n1 |
| 115 to 130 | CCOC(=O)CCCn1nnnc1-c1ccc2c(c1)[C@@H](Nc1ccnc(SC)n1)[C@](C)(O)C(C)(C)O2 |
| 157 to 158 | Nc1ccc(Oc2ccccc2-c2ccccc2Oc2ccc(N)cc2)cc1 |
| 164 to 165 | CC(Nc1nc(Cl)nc2c1cnn2-c1ccccc1)C(O)c1ccccc1 (configuration not stated) |
| 133 to 134 | COc1cc([C@H]2CS[C@@H](c3cc(OC)c(OC)c([N+](=O)[O-])c3)S2)cc(OC)c1OC (relative stereo) |
| 197 to 199 | O=C(NS(=O)(=O)c1ccccc1-c1ccc(Cn2c(CCCC(F)(F)F)nn(-c3ccccc3C(F)(F)F)c2=O)cc1)c1ccccc1 |
| 58 to 60 | Cn1cncc1[N+](=O)[O-] |
| 96 to 98 | CC(C)(Cl)c1ccc(-c2ccc(C(C)(C)Cl)cc2)cc1 |

| melting point [°C] | SMILES |
| --- | --- |
| 100 to 104 | CCCOc1c(OC)cc([N+](=O)[O-])c2ncccc12 |
| 195 to 196 | O=C1CC(c2ccc(O)cc2)Oc2cc(O)c(C3OC(CO)C(O)C(O)C3O)c(O)c21 (configuration not stated) |
| 110 to 111 | COc1cc(C)c(Br)cc1OCc1ccccc1 |
| 229 to 234 | COc1cccc(N2CCN(C(=O)c3ccccc3C(c3ccc(O)cc3)c3ccc(O)cc3)CC2)c1 |
| 207 to 210 | O=C(O)c1cc(-c2ccc3occc3c2)nn(Cc2ccc(F)cc2)c1=O |
| 172 to 175 | CN1CCC(c2c[nH]c3ccc(C(=O)c4ccc(OC(F)(F)F)cc4)cc23)CC1 |
| 289 to 291 | C[C@@H](Nc1c(NCc2ccc(F)cc2)c(=O)c1=O)C(C)(C)C |
| 140 to 143 | CN1C(=O)NCc2cccnc21 |
| 200 to 203 | CNC(=O)Nc1nc(CC(=O)Nc2cccc(C(F)(F)F)c2)cs1 |
| 63 to 63.5 | Fc1cccc(-c2cncnc2)c1 |
| 128 to 130 | CCOC(=O)c1ncn2c1c(Cl)nc1ccccc12 |
| 136 to 139 | COC(=O)CCCC(C)(C)c1cc(O)c(C(C)(C)C)cc1O |
| 205 to 207 | O=C(Nc1ccc(C(=O)N2Cc3ccccc3Cc3ccccc32)cc1)c1ccc(C(F)(F)F)cc1 |
| 159 to 160 | Cc1ccc2c(c1)/C(=N\NC(=O)NCc1ccccc1)C(=O)N2CCN(C(C)C)C(C)C |
| 206 to 208 | O=C(O)COc1cc(F)ccc1C(=O)NCc1nc2cc(C(F)(F)F)ccc2s1 |
| 180 | Cc1oncc1-c1cccc(OC2SCC(O)C(O)C2O)c1 (configuration not stated) |
| 166 to 167 | CCS(=O)(=O)c1nnc(NN)s1 |
| 300 | Oc1ccccc1-c1nc2sc(-c3ccccc3O)nc2s1 |
| 159 to 160 | O=C(N[C@H](Cc1cccc(OC(F)(F)C(F)F)c1)[C@@H](O)c1ccnc(F)c1)c1cccc2c1C=CCCC2 (racemic) |
| 95 to 97 | COc1ccccc1N1CCN(C(=O)[C@@H](Cc2ccccc2)NC(=O)OC(C)(C)C)CC1 |
| 255 | O=C(O)CNC(=O)n1cc(C(=O)c2ccn3c2CSC3c2cccnc2)c2ccc(-c3ccc(F)cc3)cc21 (configuration not stated) |
| 214 to 215 | COC(=O)c1ccc(N2C(=O)CCC2(CN=[N+]=[N-])COC(=O)c2ccccc2)c([N+](=O)[O-])c1 (configuration not stated) |
| 100 to 102 | Cc1c(C)c2c(c(C)c1OC(=O)c1ccccc1)SC(C)O2 (configuration not stated) |

| melting point [°C] | SMILES |
| --- | --- |
| 244 to 246 | O=c1cc(NCCN2CCN(c3cccc4c3OCCO4)CC2)cn[nH]1 |
| 184 to 186 | COc1ccc(-c2cc(C(Nn3cnnc3)c3ccccc3OS(N)(=O)=O)ccc2C#N)cc1 (configuration not stated) |
| 186 to 190 | COc1cc2sc(C(=N)NO)cc2c(F)c1OC |
| 186 to 189 | O=S1(=O)NCN(C2CC2)c2cc(Br)c(C(F)(F)F)cc21 |
| 100 to 102 | CCOC(=O)C(C)Oc1ncn(-c2cccc(C(F)(F)F)c2)n1 (configuration not stated) |
| 173 to 175 | COCc1c(-c2csc(C)n2)ncc2c1c1cc(OCc3ccccc3)ccc1n2S(=O)(=O)c1ccc(C)cc1 |
| 160 to 161 | C#Cc1ccc2c(c1-c1cn(C3CC(O)C(COC(c4ccccc4)(c4ccc(OC)cc4)c4ccc(OC)cc4)O3)c(=O)[nH]c1=O)Cc1ccccc1-2 (configuration not stated) |
| 158 to 160 | Cc1cc(C(=O)C(C#N)C(=O)Nc2ccccc2)c(C)n1C (configuration not stated) |
| 116 to 117 | O=C(Nc1ccc(F)cc1F)c1cccc(Oc2cccc(Cl)c2)n1 |
| 65 | CCCCCCCCc1ccc(OCC(=O)Cn2ccc3ccccc32)cc1 |
| 166 to 168 | NCCCCCCCCCCCCCCCCCCCCCC(=O)O |
| 188 to 190 | COC(=O)c1ccc(C)c(-n2c(C)cc(OCc3ccc(F)cc3CNC(=O)Nc3cc(C(C)(C)C)nn3-c3ccc(O)cc3)c(Cl)c2=O)c1 |
| 206 to 207 | CCOC(=O)c1cn2c(cc(Cl)c3ccc(Br)cc32)n1 |
| 142 to 145 | CC(NC1(C(=O)O)CCCC1)C(=O)N1CCCC1C(=O)O (configuration not stated) |
| 93 | CC(=O)SCC(C(=O)NC(C)C(=O)O)C(C)c1ccc(F)cc1 (configuration not stated) |
| 98 to 100 | COC(=O)c1c2cccccc-2c(-c2ccccc2)c1-c1ccc(S(C)(=O)=O)cc1 |
| 202 to 203 | CN1CCN(c2cccc3c2C[C@H](NC(=O)c2ccc(C(F)(F)F)cc2C(F)(F)F)CO3)CC1 |
| 160 to 162 | O=S(=O)(Cc1ccccc1)c1nc[nH]n1 |
| 200 to 207 | COC(=O)c1ccc2c(c1)C(=O)N(c1ccccc1)C2=O |
| 111 to 112 | O[C@@H]1C(Cl)=CCC[C@@H]1O |
| 247 to 249 | Cc1ccc2nc(-c3ccc4oc(=O)n(C)c4c3)c(C)n2c1 |
| 66 to 70 | CCOC(=O)CSc1nc(Cl)c(C)c(Cl)n1 |
| 163 to 164 | Cc1occ(-c2ccccc2F)c1C(=O)Nc1cccc(CO)c1 |

| melting point [°C] | SMILES |
| --- | --- |
| 140 | CNC(=O)Nc1ccc(Oc2ccc3c(c2)CCC(C)(OC)O3)cc1 (configuration not stated) |
| 102 to 104 | COc1ccc(OCC(=O)O)c(OC)c1OC |
| 134 | CCc1nn(CCO)c(CC)c1C(=O)c1cc(Cl)cc(Cl)c1 |
| 152 to 157 | CNc1sc(-c2cccnc2)nc1C(F)(F)F |
| 170 to 172 | COC(=O)C1=C(C)NC(C)=C(C(=O)OCC2CCCO2)C1c1ccccc1Br (configuration not stated) |
| 102 to 104 | CNC(=O)[C@@H](NC(=O)[C@@H](CC(=O)OCc1ccccc1)n1ccc(-c2ccc(C#N)cc2)c1)C(C)(C)C |
| 286 to 287 | CCOc1csc2c(=O)c(C(N)=O)cn(C)c12 |
| 156 to 158 | Cc1ccc(Oc2ccc(S(=O)(=O)C[C@H]([C@H]3COC(C)(C)O3)N(O)C=O)cc2)cc1 |
| 179 | OC1CSC(Oc2cnc(-c3cccnc3)c(F)c2)C(O)C1O (configuration not stated) |
| 110 to 111 | CC(=O)C1CCC(CNC(=O)c2cccnc2Oc2ccc(F)cc2)CC1 (configuration not stated) |
| 32 to 34 | CCOC(=O)c1sc(OCC)nc1-c1ccccc1 |
| 245 to 247 | Cc1cc(O)n2nc(S(=O)(=O)Nc3ccccc3C(F)(F)F)nc2n1 |
| 80 | COc1ccc(CC(=O)NCCc2cccc(OC)c2OC)cc1OC |
| 80 to 82 | CC(=O)c1ccc2c(c1)CCCN2C(=O)OC(C)(C)C |
| 142 | COc1cccc(N(CC(=O)N(C)c2ccccc2)C(=O)CNC(=O)Nc2cccc(CO)c2)c1 |
| 124 to 128 | Cc1cccc(-c2[nH]c(C(C)C)nc2-c2cccc(-c3ccc(NS(=O)(=O)C4CC4)cc3F)c2)n1 |
| 114 | NC(=O)C1CNCCN1CCCC(c1ccc(F)cc1)c1ccc(F)cc1 (configuration not stated) |
| 160 to 162 | COC(=O)c1cc(N)cc(C=NO)c1 |
| 178 to 179 | CCOc1ccc(-c2nc(-c3ccc(OC(C)=O)c(C(=O)O)c3)cs2)cc1OCC |
| 286 | Cn1c(=O)c(C#N)c(N2CCN(C(=O)c3cccs3)CC2)c2cc(F)ccc21 |
| 101 to 102 | ClCc1ncc(-c2ccccc2)c2ccccc12 |
| 133 to 134 | CCCCCCCCSc1nc(-c2ccccc2)c(-c2ccccc2)[nH]1 |

| SMILES | melting point [°C] |
| --- | --- |
| O=C(NC1N=C(c2ccccc2F)c2ccccc2-n2cnnc21)OCc1ccccc1 (configuration not stated) | 123 |
| N#C/C=C/c1cn(-c2c(Cl)cc(C(F)(F)F)cc2Cl)nc1C#N | 144 to 145 |
| CN1Cc2nc[nH]c2C[C@@H]1C(=O)c1ccccc1 | 98 |
| CN1Cc2c(C(=O)OC(C)(C)C)ncn2-c2cccc(Cl)c2C1=O | 188 to 190 |
| C[C@H]1[C@H](O)C2(CC2)C(=O)N1c1ccc(C#N)c(C(F)(F)F)c1 | 109 to 110 |
| O=C(Nc1ccc(Cl)cc1)NC1N=C(c2ccccc2F)c2ccccc2NC1=O (racemic) | 278 |
